Measured values from patent US20220402973A1, “POLYPEPTIDE FRAGMENT C (MP-C) AND USE THEREOF” (SHANGHAI LONGXIN BIOMEDICAL TECHNOLOGY CO., LTD., priority 2021, published 2022).

B1: THTVGSYFSVQNGYVGAFSQALGNSEYAMNSPLGSLDGRTTMYNLLGVKYLFAREDQLKKQ (peptide, listed as Lactobacillus plantarum)
chain: THTVGSYFSVQNGYVGAFSQALGNSEYAMNSPLGSLDGRTTMYNLLGVKYLFAREDQLKKQ
notes: positive control

How the values were obtained:
Type in all cases: in vivo, mice (male C57BL6)
[1] = tested on: DSS-induced IBD in mice; assay: Colon length in DSS-induced acute IBD mouse model; conditions: DSS 2.5 wt % induced IBD mice; 50 μg/kg intragastric daily; mean±SD; model group 6.4±0.5, blank 9.5±0.5; in cm (unit assumed)
Description: (§1) The administration of a DSS solution with a specified concentration to mice can induce an acute IBD model characterized by diarrhea, hematochezia, ulcer, and granulocyte infiltration. Mice were randomly grouped according to body weights of the mice. 40 healthy male C57BL6 mice were divided into four groups each with 10 mice: […]
(§2) After DSS induction, the body weight changes, activities, and feces viscosity of the mice in each group were recorded every day. […] A mouse colon between an anus end to an ileocecal end was integrally collected, and a length of the colon was measured; and the colon was dissected along a longitudinal axis, feces therein was rinsed off, and then the colon was stored in 4% […] or frozen at −80° C.
(§3) Experimental data in the above experimental method were expressed as (x±SD), the GraphPad Prism (ver. 8.0, GraphPad Software Inc., San Diego, Calif., USA) was used to plot a chart, the SPSS Program (ver. 25.0, SPSS Inc., Chicago, Ill., USA) was used for statistical test, and one-way ANOVA or independent two-sample t-test were used for significance test when the normality and homogeneity of variances were met. […]

[2] = tested on: DSS-induced IBD in mice; assay: Colonic histopathological evaluation (HE staining) in DSS-induced IBD mice; conditions: DSS 2.5 wt % induced IBD mice, 50 μg/kg intragastric daily, mean±SD, model group 5.6±0.7, blank 0.0±0.0
Source text: (§4) The administration of a DSS solution with a specified concentration to mice can induce an acute IBD model characterized by diarrhea, hematochezia, ulcer, and granulocyte infiltration. Mice were randomly grouped according to body weights of the mice. 40 healthy male C57BL6 mice were divided into four groups each with 10 mice:
MIMP positive control group: the mice were each given a pre-administration process for one week, that is, the mice were each intragastrically administered with an MIMP solution of a mass fraction of 50 μg/kg for the first 7 days, and then from day 8, the mice were each intragastrically administered with a DSS aqueous solution of a mass fraction of 2.5 wt % (at a volume of 0.4 mL/20 g) and an MIMP solution of a mass fraction of 50 μg/kg (at a volume of 0.4 mL/20 g) every day; and […]
as §3

[3] = tested on: IFN-γ; assay: ELISA of colonic IFN-γ expression in DSS-induced IBD mice; conditions: DSS 2.5 wt % induced IBD mice; 50 μg/kg intragastric daily; colon homogenate ELISA; mean±SD; model group 1223.1±41.5, blank 889.2±74.6
Description: as §1
The colon sample frozen at −80° C. in step 1.2 was placed in an EP tube, PBS and magnetic beads were added, and then the colon sample was subjected to ultrasonic homogenization in a tissue grinder; and a resulting homogenate was centrifuged, and a resulting supernatant was collected. […] Appropriate primary and secondary antibodies were used according to the instructions, an o-phenylenediamine (OPD) chromogenic solution was used for color development, and after the reaction was terminated, reading was conducted on a microplate reader at a wavelength of 490 nm, with three replicate wells for each sample.
as §3

[4] = tested on: DSS-induced IBD in mice; assay: DAI scoring in DSS-induced acute IBD mouse model; conditions: DSS 2.5 wt % induced IBD mice, 50 μg/kg intragastric daily; for DAI (disease activity index) score: 7 days pre-administration then with DSS, end of experiment, mean±SD, model group 3.7±0.6, blank 0.0±0.0; for body weight of mice (effect of intervention): versus model group
Description: as §4
blank control group: the mice were each intragastrically administered with water every day at a volume of 0.4 mL/20 g;
model group: the mice were each intragastrically administered with a DSS aqueous solution of a mass fraction of 2.5 wt % consecutively for 7 days, where the DSS aqueous solution was freshly prepared and changed every day;
(§5) MIMP positive control group: the mice were each given a pre-administration process for one week, that is, the mice were each intragastrically administered with an MIMP solution of a mass fraction of 50 μg/kg for the first 7 days, and then from day 8, the mice were each intragastrically administered with a DSS aqueous solution of a mass fraction of 2.5 wt % (at a volume of 0.4 mL/20 g) and an MIMP solution of a mass fraction of 50 μg/kg (at a volume of 0.4 mL/20 g) every day; and
as §5, with “MP-C experimental” for “MIMP positive control”, “MP-C” for “MIMP”, “and” for “and then”, “day.” for “day; and”
The body weight changes of mice in each group were recorded every day to determine whether the acute IBD mouse model was successfully established.
as §2
Experimental data in the above experimental method were expressed as (x±SD), the GraphPad Prism (ver. 8.0, GraphPad Software Inc., San Diego, Calif., USA) was used to plot a chart, the SPSS Program (ver. 25.0, SPSS Inc., Chicago, Ill., USA) was used for statistical test, and one-way ANOVA or independent two-sample t-test were used for significance test when the normality and homogeneity of variances were met. It was assumed that α=0.05, and P<0.05 indicates a statistically significant difference.

| Molecule | colon length [1] | colonic histopathologic score [2] | expression level of IFN-γ in colon [3] | DAI (disease activity index) score [4] | body weight of mice (effect of intervention) [4] |
| --- | --- | --- | --- | --- | --- |
| THTVGSYFVVQNGYVGAFSYALGNSEYAMSSPLGSLDGRTTRYNLL (THTVGSYFXVQNGYVGAFSXALGNSEYAMXSPLGSLDGRTTXYNLL; Sequence is synthesized; (9)..(9) Xaa can be Tyr, Val, Gly, Ser, or Gln; (20)..(20) Xaa can be Ser, Gln, Glu, or Tyr; (30)..(30) Xaa can be Asn, Thr, Ser, Pro, or Leu; (42)..(42) Xaa can be Gly, Arg, Met, or absent) [MP-C] | 9.2±0.2 | 1.2±0.2 | 1068.4±61.2 | 2.0±0.3 | prevented the significant decrease in body weight |
| B1 | 9.5±0.3 | 1.4±0.7 | 1011.4±79.5 | 2.7±0.7 | prevented the significant decrease in body weight |
